Patent US20100137208A1, “INTRATUMORALLY ADMINISTERED LACTOFERRIN IN THE TREATMENT OF MALIGNANTNEOPLASMS AND OTHER HYPERPROLIFERATIVE DISEASES” (priority 2002, published 2010)

Columns and labels:
[1] = test system: murine squamous carcinoma cell line (SCCVII); experiment: SCCVII floor-of-mouth tumor growth, docetaxel with or without oral rhLF; assay type: in vivo, C3H mice; conditions: docetaxel i.v. bolus 31.3 mg/kg Day 8, in combination rhLF 200 mg/kg oral days 5 to 12
Protocol: A murine squamous carcinoma cell line (SCCVII) was injected into the floor of the mouth through the neck skin of immunocompetent C3H mice (Day 0) as described in Example 7. On Day 5 after initial implantation, tumors were measured for the baseline, then treated with either oral placebo alone (once daily from days 5 to 12; 6 animals), placebo and docetaxel (i.v. bolus of 31.3 mg/kg docetaxel on Day 8; 9 animals), or docetaxel plus oral rhLF (200 mg/kg, administered once daily by gavage from days 5 to 12; 9 animals). Animals were sacrificed on Day 14 and tumors measured. Docetaxel alone caused an inhibition of tumor growth relative to placebo and the combination of rhLF and docetaxel induced a further growth inhibition.

[2] = test system: murine squamous carcinoma cell line (SCCVII); experiment: SCCVII floor-of-mouth tumor growth, oral rhLF and/or cisplatin; assay type: in vivo, C3H mice; conditions: in combination rhLF 200 mg/Kg oral days 5-12
Protocol: A murine squamous carcinoma cell line (SCCVII) was injected into the floor of the mouth through the neck skin of immunocompetent C3H mice (Day 0). […] Tumors were measured in three dimensions with calipers.
Tumor-bearing mice were randomized into a control group and seven groups receiving rhLF and/or cisplatin. RhLF (4 mg; 200 mg/Kg) was administered once daily by oral gavage for 8 days on days 5 through 12. Cisplatin was administered as a single dose of 5 mg/Kg given intraperitoneally either at the start of rhLF (day 5), in the middle (day 8) or at the end (day 12) of rhLF therapy. Animals were sacrificed on day 12 post-implantation and the residual tumor masses were measured and processed for later additional analyses.
A murine squamous carcinoma cell line (SCCVII) was injected into the floor of the mouth through the neck skin of immunocompetent C3H mice (Day 0) as described in Example 6. On Day 5 days after initial implantation, tumors were measured for the baseline, then treated with either cisplatin (Day 8, i.p., 5 mg/kg) alone or cisplatin plus three doses of oral rhLF (daily by gavage for 7-8 days on days 5 through 11/12). Animals were sacrificed on Day 11/12 and tumors measured.

| Structure (SMILES) | TGI (%) Relative to Placebo ([1]; Day 14) [%] | Tumor Growth ([1]; measured Day 14) | TGI (%) Relative to Placebo ([2]; cisplatin 5 mg/Kg i.p. on day 5) [%] | TGI (%) Relative to Placebo ([2]; cisplatin 5 mg/Kg i.p. on day 8) [%] | TGI (%) Relative to Placebo ([2]; cisplatin 5 mg/Kg i.p. on day 12) [%] | TGI (%) Relative to Placebo ([2]; pooled cisplatin schedules (day 5, 8, 12)) [%] |
| --- | --- | --- | --- | --- | --- | --- |
| CC(=O)O[C@@]12CO[C@@H]1C[C@H](O)[C@@]1(C)C(=O)[C@H](O)C3=C(C)[C@@H](OC(=O)[C@H](O)[C@@H](NC(=O)OC(C)(C)C)c4ccccc4)C[C@@](O)([C@@H](OC(=O)c4ccccc4)[C@H]21)C3(C)C [Docetaxel] | 59 | 2,103 | – | – | – | – |
| N.N.[Cl][Pt][Cl] [CP, Cisplatin] | – | – | 68 | 6 | 42 | 38 |
